In patent publication US20210338658A1, “MACROLIDE COMPOUNDS AND THEIR USE IN LIVER STAGE MALARIA AND RELATED DISEASE” (The Johns Hopkins University, priority 2014, published 2021):
“Also recorded” adds a separate entry of the source.

Key:
P. berghei sporozoites [1] = experiment: In vitro malaria liver stage assay (infected Hepa1-6 cells counted by anti-HSP70 immunofluorescence); format: cell-based, Plasmodium berghei; details: for reduction of parasite multiplication / growth in vitro: 10 μM
Description: 3A. […] Error is standard error of the mean of duplicate wells performed in biologic replicate. 3B. […] 50,000 Hepa1-6 cells were seeded in each well 24 hours prior to infection with 50,000 P. berghei sporozoites. The 2E6 anti-HSP70 antibody was used for immunofluorescent numeration of infected cells.
Drugs were purchased from either Sigma or Ambinter. In each chamber of 8-well LabTek tissue culture slides, 50,000 mouse hepatoma cells, Hepa1-6, were seeded one day before infection. Cells were normally cultured in DMEM supplemented with 10% FBS, 1× L-glutamine and 1× Pen-Strep at 37° C. and 5% CO2. Once incubated with P. berghei sporozoites, the culture medium supplement was changed to 2.5% FBS, 1× L-glutamine and 2× Pen-Strep. Before treatment with drugs, the cells were washed four times with DMEM containing 10× Pen-Strep and 5 ug/mL fungicide. After 24 hours, fresh culture medium containing drugs was added to each chamber. Approximately 42 hours post-infection, the growth medium was removed and 100% cold methanol was added for 15 minutes to fix the cells. After washing with sterile PBS, cells were incubated in PBS with 5% FBS for blocking. Then 2E6 anti-HSP70 antibody was diluted to 10 μg/mL in PBS with 5% FBS and added in a 200 μL volume to cells. One hour later, cells were washed with PBS and incubated with 10 μg/mL Alexafour 594 anti-mouse secondary antibody. In order to visualize hepatocytes, nuclear counterstain DAPI was incubated with cells for 5 minutes and then washed off. The plastic chambers and silicone gasket were removed and slide was fully dried before mounted and sealed with cover slides. When preparation was complete, slide was taken to the fluorescence microscope for examination. Representative areas were randomly selected from each chamber and the numbers of infected cells were counted for a similar number of microscopic fields. The level of inhibition was determined by comparing the average of each chamber containing treated cells with that of the controls.
Five compounds were procured while cethromycin was synthesized. Cethromycin was directly synthesized from erythromycin by substituting the cladinose sugar at C3 with a keto-group, attaching a cyclic carbamate group at C11-C12, and tethering the quinoline moiety to the C6 alcohol. We used the in vitro P. berghei ANKA model on mouse hepatoma cells, Hepa1-6. […] Quinoline, erythromycin and their combination were also tested to investigate the role the quinoline plays in the antimalarial activity of cethromycin. […] Due to limited synthesized amounts of cethromycin, only one dose was given to mice while other drugs and compounds were administered twice.

P. berghei sporozoites [2] = experiment: In vivo liver stage assay (mouse liver parasite load by real-time PCR); details: for effect on parasite growth in mice (in words): dose not given; for inhibitory effect on parasite proliferation in mice (in words): two doses 24 hours apart; for side effects in the mice: after two doses
Description: Approximately 10,000 sporozoites were inoculated by tail vein injection and mice were sacrificed 40 hours later, livers were harvested, placed in RNAzol and parasite levels determined by realtime PCR from cDNA from reverse transcription. Relative fluorescent units were compared to control to determine percent inhibition. Cethromycin (CET) was administered only once while the other drugs were given twice 24 hours apart from each dose. […] Error is standard error of mean of three mice with real time PCR performed in duplicate for transcript levels in each mouse.
Mice were kept in Johns Hopkins Bloomberg School of Public Health mouse facility according to the ACUC animal protocol number MO09H401. Six week old C57BL/6 mice weighing about 20-22 g were divided into groups of three. 12,000 P. berghei sporozoites in a 200 μL volume were injected into mice through tail veins. Two hours after injection, different dilutions of drugs in 100-200 μL volumes were delivered to mice by oral gavage using a plastic feeding tube. A second dose of drugs was given 24 hours after the first one to the mice that were on a daily dosing regimen. Approximately 40 hours post-infection, mice infected with P. berghei sporozoites were anesthetized by inhaling Metofane® and sacrificed for harvesting whole livers. Each mouse liver was immediately put into 10 mL of Trizol® Reagent and fully homogenized. After RNA isolation, the RNA was diluted to 100 ng/mL for reverse-transcription reactions. For a 30 μL reaction, the components were set up as: 3.5 μL of nuclease-free water, 3 μL of 10× Buffer II and 10 mM dNTPs, 6 μL of MgCl2 solution, 1.5 μL of 50 μM Random Hexamers, RNase Inhibitor and MuLV Reverse Transcriptase, 10 μL of RNA sample. cDNA products were stored at −20° C. For a 10 μL real-time quantitative PCR, the components were set up as: 0.2 μL of 10 μM forward and reverse primer 18s P. berghei, 5 μL of 2×SYBR Green PCR Master Mix, 1.6 μL of nuclease-free water, and 3 μL of cDNA sample. All test subjects were done in duplicates including positive and negative controls. When real-time PCR was finished, all data were baselined and normalized to the housekeeping gene before further analysis. The specific sequences of primers (The Core DNA Analysis Facility—JHU, Baltimore, Md.) were: 5′-[…]-3′ (SEQ ID NO: 1) and 5′-[…]-3′(SEQ ID NO: 2) for P. berghei ANKA 18s and 5′-[…]1TAGC-3′ (SEQ ID NO: 3) and 5′-[…]-3′ (SEQ ID NO: 4) for mouse HPRT.

[3] = over 5,000 humans, single day dosing; cited from earlier work
Plasmodium = details: reference molecules of the training set; read-out: liver stage inhibition; cited from earlier work

Compound	parasite inhibition in vitro (in words) (P. berghei sporozoites [1]; Hepa1-6 cells)	effect on parasite growth in mice (in words) (P. berghei sporozoites [2]; oral gavage)	inhibitory effect on parasite proliferation in mice (in words) (P. berghei sporozoites [2]; 50 mg/kg)	side effects in the mice (P. berghei sporozoites [2]; 50 mg/kg)	also measured
CC[C@H]1OC(=O)[C@H](C)C(=O)[C@H](C)[C@@H](O[C@@H]2O[C@H](C)C[C@H](N(C)C)[C@H]2O)[C@@](C)(OC/C=C/c2cnc3ccccc3c2)C[C@@H](C)C(=O)[C@H](C)[C@H]2NC(=O)O[C@@]21C [Cethromycin, (1R,2R,4R,6S,7R,8R,10R,13R,14S)-7-[(2S,3R,4S,6R)-4-(dimethylamino)-3-hydroxy-6-methyloxan-2-yl]oxy-13-ethyl-2,4,6,8,10,14-hexamethyl-6-[(E)-3-quinolin-3-ylprop-2-enoxy]-12,15-dioxa-17-azabicyclo[12.3.0]heptadecane-3,9,11,16-tetrone]	measurable inhibitory effect; also recorded: active	active	–	–	inhibition of liver stage malaria in vitro (reduction of parasite growth) (P. berghei sporozoites [1]; 20 μM, Hepa1-6 cells): 54%; inhibition at 20 µM (P. berghei sporozoites [1]; Plasmodium berghei, Hepa1-6, 20 μM, Hepa1-6 cells, read-out: inhibition of liver stage malaria in vitro (reduction of parasite growth)): 52%; inhibition of liver parasites in mice (P. berghei sporozoites [2]; 12 mg/kg, oral gavage): about 16%; reduction of parasite load in mouse liver (P. berghei sporozoites [2]; 50 mg/kg, oral gavage, one dose, liver 40 hours post-infection): 60%; effect on parasite load in mice (in words) (P. berghei sporozoites [2]; cethromycin 12 mg/kg): only partially effective; safety in humans [3]: used safely
O=C(COC(=O)c1cccnc1SCC(=O)Nc1cc(S(=O)(=O)N2CCOCC2)ccc1Cl)Nc1cc(S(=O)(=O)N2CCOCC2)ccc1Cl [T0507-9950, [2-(2-chloro-5-morpholin-4-ylsulfonylanilino)-2-oxoethyl] 2-[2-(2-chloro-5-morpholin-4-ylsulfonylanilino)-2-oxoethyl]sulfanylpyridine-3-carboxylate]	measurable inhibitory effect	–	significant inhibitory effect	without causing any notable side effects	–
O=C(/C=C/c1ccc(Cl)cc1Cl)Nc1cc(S(=O)(=O)N2CCCCC2)ccc1Cl [T0510-7064, (E)-N-(2-chloro-5-piperidin-1-ylsulfonylphenyl)-3-(2,4-dichlorophenyl)prop-2-enamide]	measurable inhibitory effect	–	significant inhibitory effect	without causing any notable side effects	reduction of parasite multiplication / growth in vitro (P. berghei sporozoites [1]; Hepa1-6 cells): 54%
CCN(CC)S(=O)(=O)c1cccc(-c2nnc(SC(C)C(=O)Nc3ccc(C)c(S(=O)(=O)N(CC)CC)c3)n2Cc2ccccc2)c1 (stereo not drawn) [T5531873, 2-[[4-benzyl-5-[3-(diethylsulfamoyl)phenyl]-1,2,4-triazol-3-yl]sulfanyl]-N-[3-(diethylsulfamoyl)-4-methylphenyl]propanamide]	measurable inhibitory effect	–	significant inhibitory effect	without causing any notable side effects	reduction of parasite multiplication / growth in vitro (P. berghei sporozoites [1]; Hepa1-6 cells): over 95%; inhibition of liver stage malaria in vitro (P. berghei sporozoites [1]; FIG. 3, concentration not given): ~95%
CC[C@H]1OC(=O)[C@H](C)[C@@H](O[C@H]2C[C@@](C)(OC)[C@@H](O)[C@H](C)O2)[C@H](C)[C@@H](O[C@@H]2O[C@H](C)C[C@H](N(C)C)[C@H]2O)[C@](C)(O)C[C@@H](C)C(=O)[C@H](C)[C@@H](O)[C@]1(C)O [erythromycin]	Neither quinoline, nor erythromycin, nor their combination showed any parasite inhibition; also recorded: inactive; also recorded: no activity	only marginal inhibitory effect; also recorded: no activity	–	–	–
CC[C@@]1([C@@H]2O[C@@H]([C@H]3O[C@@](O)(CO)[C@H](C)C[C@@H]3C)C[C@@H]2C)CC[C@H]([C@]2(C)CC[C@]3(C[C@H](O)[C@@H](C)[C@@H]([C@@H](C)[C@@H](OC)[C@H](C)C(=O)O)O3)O2)O1 [monensin]	–	–	–	–	IC50 (Plasmodium): 1 pM
COc1cc(NC(C)CCCN)c2ncccc2c1 (stereo not drawn) [primaquine]	–	–	–	–	inhibition of liver parasites in mice (P. berghei sporozoites [2]; primaquine 15 mg/kg, oral gavage): 83%
c1ccc2ncccc2c1 [quinoline]	Neither quinoline, nor erythromycin, nor their combination showed any parasite inhibition; also recorded: inactive; also recorded: no activity	only marginal inhibitory effect; also recorded: no activity	–	–	effect on parasite growth in mice (in words) (P. berghei sporozoites [2]; oral gavage, listed as quinolone): only marginal effect
